# From patent publication US20050221381A1, “Method for isolating ligands” (priority 2002, published 2005)
# “Also recorded” adds a separate entry of the source.
# How the values were obtained:
# [1] = in vivo; cited from earlier work
# [2] = test system: CMV; settings: cited from earlier work
# [3] = test system: CMV mutants resistant to Ganciclovir, Cidofuvir and Foscarnet; settings: cited from earlier work
# [4] = target: HLA-A2 (Homo sapiens, UniProt P04439, D140Y/D185E/D98H/E176V/E277Q/G131W/G231S/I119V/I121R/I166T/I218V/L300P/L318F/N151K/N90K/P208A/P217A/Q86G/Q94H/R138H/R169H/T345S); settings: cited from earlier work
# [5] = test system: CD8+ T-cells, HLA-A*0201 positive T2 cells; settings: interferon-gamma ELIspot
# [6] = target: T1, soluble DRB1*0401 molecules (Homo sapiens, UniProt P01903+P01911, A100K/A169T/F76Y/I96L/K127E/L162R/M171V/N62H/P40V/Q125Y/R42H/S133A/S149N/S66Y/V115G/V209L/W38E); experiment: Epitope capture from peptide mixtures, gel filtration and MALDI-TOF MS of bound peptides; type: binding
# T1 construct: Soluble HLA class I A*0201 and HLA class II DRA1*0101/DRB1*0101/Ii, DRA1*0101/DRB1*0401/Ii and DRA1*0101/DRB1*0404/Ii molecules were expressed in SC-2 cells; made in house; host or cells: SC-2 cells
# Source text: After peptide binding reaction with soluble HLA molecules, HLA-peptide complexes were separated from free peptides by gel-filtration chromatography on Superdex-200 column (AKTAdesign, Amersham Pharmacia Biotech). HLA-containing fractions were collected, and bound peptides were reconstituted from the complexes by adding TFA to the final concentration of 1%. Peptides were desolted by Ziptip purification and analyzed by MALDI-TOF mass-spectrometry.
# Second, the ability to capture peptides binding to HLA class II molecules from the mixture of two high affinity ligands was tested. The binding reaction contained 1 μM of soluble DRB1*0401 molecules and 5 μM of each YAR and 1242 peptide. After the HLA-peptide complexes were formed, they were separated from the excess of free peptides by gel filtration chromatography. Fractions containing MHC molecules were collected. Bound peptides were eluted from the complexes and analyzed by mass-spectrometry.
# Third, it was investigated if the binding capacity of the high affinity ligand would be influenced by the excess of low affinity peptide. […] Peptide binding was assessed by SDS-stability assay and verified by MS analysis (FIG. 3).
# The final concentration of each peptide in binding reaction was 5 μM, except 1236 added in 55 μM, meaning that the concentration of each individual binding peptide was 20-fold lower than final concentration of all peptides. DRB1*0401 molecules were added to 1 μM. The formation of MHC-peptide complexes was evaluated as described above, using single peptides as controls (FIG. 4). […] The result of this analysis yielded the two peptides with highest binding affinities: 1242 and YAR (see Table 1). The peptides with moderate and/or low affinities were not found in the complexes, probably due to the high concentration of strong competitors used in this assay.
# [7] = test system: isolated CD4+ T cells; experiment: Synthetic IFN-γ Elispot assay with sHLA DRB1*0401 and anti CD28; type: cell-based, human; settings: sHLA DRB1*0401 loaded with peptide, vs negative control peptide p84 (FIG. 5a)
# [8] = target: T2, soluble DRB1*0401 molecules (DR4) (Homo sapiens, UniProt P01903+P01911, A100K/A169T/F76Y/I96L/K127E/L162R/M171V/N62H/P40V/Q125Y/R42H/S133A/S149N/S66Y/V115G/V209L/W38E); type: binding; design: key to DR4 binding: +++: high binding affinity; ++: moderate binding affinity; +: low binding affinity; −: no binding; settings: SDS-stability assay
# T2 construct: Soluble HLA class I A*0201 and HLA class II DRA1*0101/DRB1*0101/Ii, DRA1*0101/DRB1*0401/Ii and DRA1*0101/DRB1*0404/Ii molecules were expressed in SC-2 cells; made in house; host or cells: SC-2 cells
compound,measurement,setting,value
CC(C)[C@H](N)C(=O)OCC(CO)OCn1cnc2c(=O)nc(N)[nH]c21 (stereo partly drawn) [Valganciclovir],Oral bioavailability,[1],markedly increased
same,Incidence of CMV disease,"[2]; kidney transplant patients, given for three months",reduced the incidence of CMV disease
same,Proportion of patients with biopsy-proven rejection,[2]; six months after transplantation,significant reduction
Fomivirsen,Efficacy against multidrug resistant mutants,[3],effective against such mutants
RLLQTGIHV,Binding to HLA-A2 / stabilisation of HLA-A2/β2m/peptide complex,[4],can stabilize; also recorded: has been demonstrated
same,Confirmation as HLA-A*0201 epitope / induction of functional T-cells (in words),[5],induce functional T-cells
YNINISLPSYYPDQKSL [Peptide 1242],Formation of stable MHC-complexes in presence of excess low affinity peptide,"[6]; 1242 5 to 50 μM, 100 μM peptide 1236 (2-20 fold excess), 1 μM DRB1*0401",does not impede the formation of stable MHC-complexes
same,"Peptides captured from pool of 10 peptides, MS analysis","[6]; each peptide 5 μM, 1236 55 μM, DRB1*0401 1 μM",captured by DR4 molecules
same,Peptides found in complexes with MHC molecules by MS,"[6]; mixture of two ligands, 5 μM each, 1 μM DRB1*0401",revealed in the complexes with MHC molecules
same,Number of induced IFN-γ spots,[7],significantly above the spontaneous IFN-γ secretion
same,Binding to soluble DRB1*0401 molecules (in words),[8],highest
same,DR4 binding,"[8]; direct binding of individual peptides, compared with YAR and HA306-318",+++
